This note sets out measurements from article PMC9738062, “Selectively Halogenated Flavonolignans—Preparation and Antibacterial Activity” (International Journal of Molecular Sciences, 2022).

“Also recorded” adds a separate entry of the source.

Assay [1] relates to multidrug-resistant S. aureus. In words: Sensitization of antibiotic-resistant bacteria (compound plus breakpoint antibiotic concentration). It is filed as cell-based, Staphylococcus aureus. The method in brief: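 A multidrug-resistant clinical isolate of S. aureus from the General University Hospital in Prague was grown in Mueller–Hinton broth with flavonoid derivatives combined with a EUCAST breakpoint concentration of antibiotic. MIC was determined according to ISO 20776-1: 2020, and viability was read as absorbance at A590 nm after 24 h at 37 °C and 150 rpm.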

A further assay is described as follows: DPPH radical scavenging. The settings on record: 1,1-diphenyl-2-picrylhydrazyl radical scavenging. The method in brief: (§1)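 ABTS and DPPH radical scavenging gauged antiradical activity. Reducing capacity was measured as reduction of Folin–Ciocalteu reagent and of ferric ions (FRAP).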
For orientation: Loss of DPPH colour is used to gauge radical scavenging.

The test system of assay [2] is Vibrio campbellii BAA 1119 (AI-2). In words: microbe, parasite or virus in culture. It counts as cell-based. Put shortly:
(§2)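 Mutant V. campbellii strains responding only to AI-1 (BAA-1118) or AI-2 (BAA-1119), seeded at 5 × 10^5 CFU/mL in Autoinducer Bioassay medium (potassium phosphate pH 7.0); compounds at final 0.2–200 µM.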

Assay [3] concerns Vibrio campbellii BAA 1118 (AI-1). In words: microbe, parasite or virus in culture. It is filed as cell-based. Put shortly: as §2
In assay [4] the test system is lipopolysaccharide-stimulated macrophages (RAW 264.7). In words: Inhibition of nitric oxide production (Griess reagent). The settings on record: Mus musculus, RAW264.7; LPS 100 ng/mL, 24 h; highest tested concentration 100 µM; read-out: NO Production IC50. It counts as cell-based, murine. Put shortly:
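RAW 264.7 macrophages seeded at 1 × 10^6 cells/mL and stimulated with bacterial lipopolysaccharide. After 24 h, medium was mixed 1:1 with Griess reagent (0.04 g/mL) and absorbance read at 540 nm after 15 min. Viability by resazurin.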
(Griess reagent forms a coloured azo dye with nitrite.)

Assay [5] has as its system pooled male rat microsomal liver membranes. In words: Inhibition of lipid peroxidation induced by tert-butyl hydroperoxide. It counts as biochemical. The conditions noted are these: male rat microsomes, read-out: ILP IC50. The procedure: The antiradical activity was evaluated by the ability to scavenge ABTS and DPPH radicals. Reducing capacity was assessed by the ability to reduce the Folin–Ciocalteu reagent (FCR) and ferric ions (FRAP). The ability to inhibit lipid peroxidation of pooled male rat microsomal liver membranes induced by tert-butyl hydroperoxide was also evaluated and the results were expressed as IC50 values.

The subject of assay [6] is multidrug-resistant P. aeruginosa. In words: Sensitization of antibiotic-resistant bacteria (compound plus breakpoint antibiotic concentration). It counts as cell-based, Pseudomonas aeruginosa. The settings on record: flavonoid 40 µM, 24 h. The method in brief: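 A multidrug-resistant clinical isolate of P. aeruginosa, obtained from the General University Hospital in Prague and resistant to colistin and imipenem among other drugs, was grown in Mueller–Hinton broth. Flavonoid derivatives at up to 40 µM were combined with EUCAST breakpoint antibiotic concentrations. MIC was determined per ISO 20776-1: 2020, with viability read as A590 nm after 24 h at 37 °C, 150 rpm.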

The nature of assay [7]: Folin-Ciocalteu reagent reduction. The conditions noted are these: gallic acid equivalents. Put shortly: as §1
For Effect on viability in combination with imipenem in this document: key: -: no effect (100% viability) was observed up to the highest flavonolignan concentration tested (>40 µM); reversion of resistance: the compound reversed the resistant phenotype to a sensitive one.

Usually IC50 stands for the midpoint of a concentration-inhibition curve. Consider `COc1cc([C@@H]2Oc3cc([C@H]4Oc5c(Br)c(O)c(Br)c(O)c5C(=O)[C@@H]4O)ccc3O[C@H]2CO)cc(Br)c1O` [compound 22, 6,8,21-tribromosilybin B], for which the “Effect on viability in combination with chloramphenicol” value in assay [1] (chloramphenicol 8 mg/L, flavonoid 40 µM, 24 h) is “-”. The “Effect on viability in combination with gentamicin” value in assay [1] (gentamicin 1 mg/L, flavonoid 40 µM, 24 h) is “reversion of resistance”. Also, the “Gentamicin-resistant phenotype of S. aureus (result in words)” value in assay [1] (gentamicin breakpoint concentration, compound 40 µM) is on record as “reversed the resistant phenotype to a sensitive one; also recorded: revert the resistant phenotype into a sensitive one”. Besides, the IC50 in “DPPH radical scavenging” is 238 µM; in assay [4] it was more than 100 µM; in assay [5], 255 µM. In addition, the EC50 in assay [2] (Vibrio campbellii, BAA1119, 16 h, read-out: EC50 (concentration that halved the communication)) was 12 ± 0.5 µM; in assay [3] (Vibrio campbellii, BAA1118, 16 h, read-out: EC50 (concentration that halved the communication)) it was 4.3 ± 0.3 µM. The “SI (selectivity index)” value in assay [2] (ratio IC50 (viability) / EC50 (communication), BAA 1119) is reported as 2.9 ± 0.3; in assay [3] (ratio IC50 (viability) / EC50 (communication), BAA 1118) it was 1.7 ± 0.1. In assay [6] (colistin 2 mg/L), the “Effect on viability in combination with colistin” value is “-”. The “Effect on viability in combination with imipenem” value in assay [6] (imipenem 4 mg/L) is recorded as “-”. In addition, the “FCR [GAE]” value in assay [7] was found to be 1.01 ± 0.04 GAE.
